Read-outs that look alike come from different tables or passages of the source.
Tests used:
THP-1 cells = assay: LPS induced cytokine (TNFα and IL8) production assay in THP-1 cells; type: cell-based; details: Homo sapiens, 300 ng/mL LPS
Summary of the method: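 THP-1 cells (100,000/well) pre-incubated 1 hour with compound in 0.3% DMSO, then stimulated with 300 ng/mL LPS. TNFα and IL8 in supernatant measured by HTRF at 5 hours; IL8 and viability also at 16 hours.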

[1] = tested on: collagen-induced arthritis; assay: In vivo murine collagen-induced arthritis model; details: DBA mice, vs vehicle
Protocol: In Vivo Murine Collagen-Induced Arthritis Model Compounds of the present invention were also evaluated in mice in an in vivo efficacy model for inhibiting IRAK4-mediated arthritis. An exemplary protocol for this assay follows. Male DBA mice were immunized with collagen on day 0 and day 21 and randomly enrolled into groups upon onset of disease. […] Eight mice were enrolled per group with the exception of the naïve control group, which contained four mice. Day 1 was designated as the first treatment day, and mice were evaluated daily for clinical scores until day 11. The mice were weighed on alternating days.

hPBMC = assay: In vitro LPS/R848/CpG/IL-1β-induced cytokine production assay in hPBMC; type: cell-based; details: Homo sapiens
Protocol: (§1) In Vitro LPS/R848/CpG-Induced Cytokine Production Assays in hPBMC or Whole Blood
(§2) Compounds of the present invention were also studied in in vitro LPS/R848/CpG-induced cytokine production assays. Exemplary protocols follow.
(§3) […] Cells were seeded in a 96-well plate with 130 ul/well of the cell suspension according to the plate map. 9 ul of 30 mM compound solution was added into the wells in the assigned rows, then serial solutions with 4× dilutions were made. That is, add 9 uL of 100% DMSO into each of the rest wells and take 3 uL of compound solution from the one-step higher concentration solution and mix well with the DMSO. For the second compound master plate, 196 uL of the growth medium (no serum media) were added into each of the wells and 4 uL of the compound solution from the first compound master plate was added and mixed with the media. Cells were treated for 0.5 h by adding 20 uL of the compound and the control solutions prepared in the second master plate to each well according to the plate map. […] Plates were sealed with sealing films and the plates were centrifuged at 3000 rpm at 4 degrees C. for 5 min. The supernatants were transferred, and 100 ul of working Capture antibody solution was added to each well. The plates were sealed and incubated overnight at RT. IL-6, IFN-α or TNF-α detection antibody labeled with biotin: Added 100 uL of the Detection Antibody solution to each well. Covered the plate and incubated for 2 h at RT. Added 100 uL of Streptavidin-HRP solution to each well. Covered the plate and incubate for 20 min at RT in dark. Added 100 uL of Substrate Solution to each well. Incubated for 20 min at RT in dark. Added 50 uL of Stop Solution to each well. Gently tapped the plate to ensure thorough mixing. Determined the optical density of each well immediately, using a microplate reader set to 450 nm and also read at 540 nm or 570 nm for correction if wavelength correction is not available.

GCB DLBCL Cells = assay: sensitization of GCB DLBCL cells by BTK knockdown; type: cell-based; details: BTK knockdown (FIG. 10)
ABC DLBCL cell lines = assay: Cell viability assay, combination with ibrutinib; type: cell-based
Protocol: Compounds of the present invention were also evaluated in a cell viability assay.

Whole Blood = assay: In vitro LPS/R848-induced cytokine production assay in whole blood; type: cell-based, human; details: Homo sapiens
Protocol: as §1, §2, §3

MSU-induced gout = assay: In vivo murine air pouch model of human gout (MSU); details: Balb/c mice, oral twice a day for six days, 10, 30 or 100 mg/kg
Protocol: In Vivo Murine Air Pouch Model of Human Gout Compounds of the present invention were also evaluated in mice in an in vivo efficacy model for inhibiting monosodium urate (MSU) induced model of gout. An exemplary protocol for this assay follows. A sterile air pouch was created in Balb/c mice. I-67 was administered orally to the mice twice a day for six days at doses of either 10, 30 or 100 mg/kg. Following the last dose the mice were anesthetized and the air pouch was injected with a suspension of monosodium urate (MSU) to induce the inflammatory response. Four hours after the injection the air pouch exudate was collected and the number of white blood cells was measured.

ABC DLBCL Cells = assay: sensitization of ABC DLBCL cells to IRAK inhibitors by BTK knockdown; type: cell-based; details: BTK knockdown (FIG. 9)
Excerpt: FIG. 8 depicts the sensitization of ABC DLBCL Cells to IRAK Inhibitors by BTK knockdown.

[2] = R848 1 uM, read-out: TNF-α production IC50

IC50 (THP-1 cells; read-out: IL8 production IC50): ≤ 500 nM
IC50 (THP-1 cells; read-out: TNFα production IC50): 500 to 1000 nM
IC50 (hPBMC; CpG 0.1 uM, read-out: IFN-α production IC50): 500 to 1000 nM
IC50 (hPBMC; CpG 0.5 uM, read-out: TNF-α production IC50): 250 to 500 nM
IC50 (hPBMC; IL-1β 1 ng/mL, read-out: IL-6 production IC50): 250 to 500 nM
IC50 (hPBMC; LPS 0.01 ug/mL, read-out: IL-6 production IC50): ≤ 250 nM
IC50 (hPBMC; LPS 0.01 ug/mL, read-out: TNF-α production IC50): 250 to 500 nM
IC50 (hPBMC; [2]): 500 to 1000 nM
IC50 (Whole Blood; LPS 0.1 ug/mL, read-out: IL-6 production IC50): ≤ 250 nM
IC50 (Whole Blood; R848 1 uM, read-out: IFN-α production IC50): ≥ 1000 nM
IC50 (Whole Blood; [2]): 500 to 1000 nM
SMILES: NC(=O)C[C@H]1CCc2sc3ncnc(O[C@H]4CC[C@H](N5CCOCC5)CC4)c3c21 [Compound I-67, 2-((R)-4-(((1r,4R)-4-morpholinocyclohexyl)oxy)-6,7-dihydro-5H-cyclopenta[4,5]thieno[2,3-d]pyrimidin-5-yl)acetamide]
Clinical scores, collagen-induced arthritis ([1]; intraperitoneally 30 mg/kg twice a day): efficacious compared to the vehicle
Clinical scores, collagen-induced arthritis ([1]; orally 30 mg/kg twice a day): efficacious compared to the vehicle
sensitization of GCB DLBCL Cells to compound by BTK Knockdown (GCB DLBCL Cells): lack of sensitization
Killing of ABC DLBCL cells in combination with ibrutinib (ABC DLBCL cell lines): Synergistic killing
Efficacy in MSU-induced gout (white blood cell counts in air pouch exudate) (MSU-induced gout): efficacious
sensitization of ABC DLBCL Cells to compound by BTK knockdown (ABC DLBCL Cells): sensitization

Reference: patent publication US20160193216A1 (Nimbus Iris, Inc., priority 2012, published 2016)
